{"source": "patent US20060100180A1", "about": "“Composition containing an androgenous 11b-halogen steroid and a progestational hormone, and male contraceptive based on said composition” (priority 2002, published 2006)", "key": {"[1]": {"details": "cited from earlier work"}, "[2]": {"experiment": "effectiveness compared with testosterone", "details": "more effective than testosterone"}}}
{"smiles": "C[C@@H]1CC2=CC(=O)CC[C@@H]2[C@H]2CC[C@]3(C)[C@@H](O)CC[C@H]3[C@@H]21", "note": "[7α-methyl-19-nortestosterone]", "values": [{"measurement": "biological effectiveness compared with testosterone", "setting": "[1]", "value": "higher biological effectiveness than testosterone"}]}
{"smiles": "C[C@@H]1CC2=CC(=O)CC[C@@H]2[C@@H]2[C@@H]1[C@@H]1CC[C@H](O)[C@@]1(C)C[C@@H]2F", "note": "[Compound A, 11β-fluoro-17β-hydroxy-7α-methyl-estr-4-en-3-one]", "values": [{"measurement": "effectiveness relative to testosterone", "setting": "[2]", "value": "about 10 ×"}]}
